Data reported in PMC8880313, “Discovery of Novel Andrographolide Derivatives as Antiviral Inhibitors against Human Enterovirus A71” (Pharmaceuticals, 2022).

How the values were obtained:
CV-A24 = test: Post-treatment assay, antiviral spectrum; assay type: cell-based, Coxsackievirus A24
Experimental: We were also interested in the antiviral potential of ZAF-47 against other Enteroviruses. As such, we performed post-treatment assay on RD cells infected with other Enteroviruses such as CV-A16, CV-A6, Echo7, CV-B5, CV-A24 and EV-D68.
To determine the inhibitory profiles of the hits, post treatment assay was performed. Seeded 24-well plates, with 1.5 × 10^5 RD cells per well, were incubated overnight at 37 °C with 5% CO2. The seeded cells were infected with EV-A71 (100 µL per well, MOI = 1) for 1 h at 37 °C with 5% CO2 and then rinsed with 1 mL of PBS twice. Different concentrations of the hits were used to treat the infected cells for 12 h at 37 °C with 5% CO2. At 12 hpi, the plates were frozen and thawed for 2 cycles (−80°C; 37 °C) before collection of supernatants to measure the viral titres via viral plaque assay.
Measurement of the viral titres from collected supernatants was derived from viral plaque assays. To do this, 24-well plates, seeded with 2.4 × 10^5 RD cells per well, were used in plaque assays for EV-A71, EV-D68, Echo7, CV-A6, CV-A16 and CV-A24 while 24-well plates, seeded with 1.2 × 10^5 Vero cells per well, were used in plaque assays for CV-B5. Seeded cells were incubated overnight at 37 °C with 5% CO2. […] Subsequent formation of viral plaques was counted manually to quantify the viral titre in PFU/mL […]

[1] = system: EV-A71 proteins, VP2 and VP0; test: SDS-PAGE and Western blot of EV-A71 proteins; assay type: cell-based, human enterovirus A71 (EV-A71) strain 41; conditions: 6 h
Experimental: Since ZAF-47 possibly targets EV-A71 post-entry stages, we were interested in looking at the effect of ZAF-47 on EV-A71 protein expression. To do so, we first infected RD cells with EV-A71. We then treated the infected cells with different concentration of ZAF-47 for 6 h and collected the cell lysates for SDE-PAGE and Western blot. […] Since ZAF-47 acts on the post-entry stages and reduces EV-A71 protein expression, we hypothesized that ZAF-47 could be inhibiting RNA replication or protein translation, or possibly both, resulting in reduced viral protein expression.
Seeded 24-well plates, with 1.5 × 10^5 RD cells per well, were incubated overnight at 37 °C with 5% CO2. After which, the cells were subjected to EV-A71 infection (100 µL per well, MOI = 1) for 1 h. Reduced serum DMEM was used for mock-infection. The infected cells were then rinsed with PBS twice before treatment with 0.1% DMSO or ZAF-47 at various concentrations for 6 h at 37 °C with 5% CO2. After 6 h of drug treatment, cells were lysed with 100 µL of 1x Laemmli buffer and cell lysate was stored at −80 °C.
The cell lysate samples were subsequently boiled for 10 min at 100 °C and loaded on to a 10% acrylamide gel. SDS-PAGE was run for 2.5 h at 100V to separate the proteins. Bio Basic 10–250 kDa Protein Ladder BZ0011G (Bio Basic, Markham, Canada) was also loaded as a molecular-weight size marker. […]

## CC(=O)OC[C@]1(C)C(=O)CC[C@@]2(C)C(C/C=C3/C(=O)OC[C@@H]3Oc3cccc4cccnc34)=C(C)CC[C@@H]21 [ZAF-47, (14β)-(8′-Quinolinoxy)-3-ketone-9-dehydro-17-hydro-19-acetoxy–andrographolide]
CV-A24; 10 µM, CV-A24-infected RD cells
  viral titre: reducing the viral titres of the above-listed enteroviruses significantly
CV-A24; CVA24, CV-A24, Enterovirus C, drug treatment duration 12 h, RD cells
  IC50: 1.09 µM
[1]; 5 µM, normalized with β-actin
  VP0 band intensity reduction in comparison to the control: 35 fold
[1]; different concentrations
  VP2 band: not with any ZAF-47 treatment
